The target of test [1] is T1, Ephrin type-A receptor 2 [596-900] (Homo sapiens, UniProt P29317).
T1 construct: 596-900
T1 sequence (P29317 whole entry): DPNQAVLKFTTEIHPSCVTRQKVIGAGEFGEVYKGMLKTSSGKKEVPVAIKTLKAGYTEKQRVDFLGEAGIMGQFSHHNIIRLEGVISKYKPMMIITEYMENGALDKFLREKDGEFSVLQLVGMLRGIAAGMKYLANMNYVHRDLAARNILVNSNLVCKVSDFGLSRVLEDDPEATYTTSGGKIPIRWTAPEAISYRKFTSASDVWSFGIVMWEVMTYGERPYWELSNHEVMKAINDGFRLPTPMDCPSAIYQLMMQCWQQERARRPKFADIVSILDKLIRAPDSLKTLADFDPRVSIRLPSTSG
Nature of the test: Kinobeads Competition Assay.

The target in test [2] is T1, Ephrin type-A receptor 2 [596-900]. As to the kind of experiment: HotSpot Kinase Activity Assay. From the text: Refer to Reaction Biology Corps.

Each structure is given as a SMILES string.

The term Kd denotes a measure of binding affinity in units of concentration. High values mean lower affinity, low ones higher affinity. Compound `CN1CCN(CCOc2cc(OC3CCOCC3)c3c(Nc4c(Cl)ccc5c4OCO5)ncnc3c2)CC1` registered a Kd in test [1] of 338 nM.
The same measure, in the same setting: to `CNC(=O)c1cc(Oc2ccc(NC(=O)Nc3ccc(Cl)c(C(F)(F)F)c3)c(F)c2)ccn1` belongs 869 nM.
For orientation: IC50 means the concentration that inhibits the measured activity by half. Higher therefore signals lower potency. On to `CC(C)c1cc(CNc2nc(Nc3cc(C4CC4)[nH]n3)cc(N3CCN(C)CC3)n2)on1` [4-N-(5-cyclopropyl-1H-pyrazol-3-yl)-6-(4-methylpiperazin-1-yl)-2-N-[(3-propan-2-yl-1,2-oxazol-5-yl)methyl]pyrimidine-2,4-diamine], for which inhibition in test [2] was half-maximal at 4 nM (IC50). Further, binding in test [1] was put at a Kd of 19 nM.
Taken in the same sequence, the figures for `Cc1ccc(NC(=O)c2ccc(CN3CC[C@H](N(C)C)C3)c(C(F)(F)F)c2)cc1Nc1ncc(-c2cncnc2)cn1` [4-[[(3S)-3-(dimethylamino)pyrrolidin-1-yl]methyl]-N-[4-methyl-3-[(5-pyrimidin-5-ylpyrimidin-2-yl)amino]phenyl]-3-(trifluoromethyl)benzamide] were 17 nM and 192 nM.
For `CCS(=O)(=O)c1cccc(-c2cc(C(=O)NC3CCN(C)CC3)c(C)c3[nH]c4ncc(C)cc4c23)c1` [5-(3-ethylsulfonylphenyl)-3,8-dimethyl-N-(1-methylpiperidin-4-yl)-9H-pyrido[2,3-b]indole-7-carboxamide] the same measures were 4.8 nM and 198 nM.
`COc1cc2c(Nc3ccc(Cl)c(Cl)c3F)ncnc2cc1OCC1C[C@@H]2CN(C)C[C@@H]2C1` (stereo partly drawn) [7-[[(3aS,6aR)-2-methyl-3,3a,4,5,6,6a-hexahydro-1H-cyclopenta[c]pyrrol-5-yl]methoxy]-N-(3,4-dichloro-2-fluorophenyl)-6-methoxyquinazolin-4-amine] registered a Kd in test [1] of 458 nM.
Still for that read-out and setting: to `COc1cc(N2CCC(N3CCN(C)CC3)CC2)ccc1Nc1ncnc(Nc2ccccc2S(=O)(=O)C(C)C)n1` [ASP-3026] belongs 640 nM.
On to `COc1cc(Nc2ncc3c(n2)-c2ccc(Cl)cc2C(c2c(F)cccc2OC)=NC3)ccc1C(=O)O` [Alisertib], for which, in test [2], it took 48 nM to reach half-maximal inhibition (IC50). The compound also returned a Kd in test [1] of 187 nM.
`COc1cccc(Nc2ncnn3ccc(CN4CC[C@@H](N)[C@H](O)C4)c23)c1` [BMS-690514] registered a Kd in test [1] of 961 nM.
For `C[C@@H](NC(=O)c1ncnc(N)c1Cl)c1ncc(C(=O)Nc2cc(C(F)(F)F)c(Cl)cn2)s1` [MLN-2480], the Kd in test [1] is 484 nM.
In turn, `CNC(=O)c1nn(C)c2c1C(C)(C)Cc1cnc(Nc3ccc(N4CCN(C)CC4)cc3)nc1-2` [Milciclib] returned a Kd in test [1] of 672 nM.
The same measure, in the same setting: to `COc1cc2nccc(Oc3ccc(NC(=O)Nc4cc(C)on4)c(Cl)c3)c2cc1OC` [Tivozanib] belongs 259 nM.

Values taken from BindingDB's records for doi:10.1021/acschembio.6b00709 (Technical University of Munich, 2016).
